How the values were obtained:
[1] = test system: M-07e cells which endogenously express human c-KIT; experiment: M-07e cellular assay: SCF-mediated cell proliferation (CellTiter Glo); assay type: cell-based; details: 72 h, SCF-mediated proliferation of M-07e cells
Experimental: M-07e cells (Creative Bioarray, CSC-C0249) which endogenously express human c-KIT were used to evaluate the effect of compounds on stem cell factor (SCF)-mediated cell proliferation. M-07e cells were cultured in growth media (RPMI+10% FBS+1% penicillin/streptomycin+10 ng/mL GM-CSF) at 5E5-1.5E6 cells/mL, replenishing media every 3-4 days. 1.5E4 cells were seeded per well in 384 well tissue culture treated plates in […] assay media (RPMI+10% FBS+1% penicillin/streptomycin) without growth factor stimulation and incubated at 37° C. in a CO2 humidity-controlled incubator. Twenty-four hours later, three-fold serially diluted test compounds in media containing SCF (at the previously determined EC90) were added to the plated M-07e cells and incubated for an additional 72 hours. Cell viability was determined by adding 25 μL CellTiter Glo (Promega) to the cells and the luminescence was measured using a Perkin Elmer Envision plate reader. The EC50 was determined using GraphPad Prism. Percent cell growth was determined after normalizing the curve to the mean RLU high control (no compound control wells) at 100% and the mean RLU low control (no SCF control wells) at 0%.

[2] = biological target: T1, Recombinant human c-KIT kinase (Homo sapiens, UniProt P10721); experiment: c-KIT kinase chemiluminescence assay (ADP-Glo); assay type: biochemical; details: ATP 50 μM
T1 construct: purchased Promega V4498
Experimental: The c-KIT Kinase Enzyme System (V4498) and ADP-Glo™ Kinase Assay kit (V6930) were purchased from Promega (Madison, WI). DMSO (D2650) was purchased from Sigma-Aldrich (Burlington, MA).
c-KIT Kinase Chemiluminescence Assay:
Kinase Reaction: The kinase assay was based on the recommended protocol by c-KIT Kinase Enzyme System from Promega. Recombinant human c-KIT kinase in 3 μL of assay buffer (40 mM Tris pH 7.5, 20 mM MgCl2, 0.1 mg/mL BSA and 50 μM DTT) was added to the test or high control wells and 3 μL of assay buffer was added to the low control wells. The microplate was centrifuged at 800 rotations per minute (rpm) for 60 s and incubated at room temperature (RT) for 30 min. Next, 2 μL of buffered ATP and polyEY substrate solution was added to all wells. The microplate was centrifuged at 800 rpm for 60 s and incubated at RT for 2 h.
ADP detection with ADP-Glo™ Kinase Assay: After the kinase reaction incubation, 5 μL of ADP-Glo™ reagent was added to all wells. The microplate was centrifuged at 800 rpm for 60 s and incubated at RT for 40 min. Ten microliter (10 μL) of Kinase Detection Reagent (Luciferin-Luciferase system) was then added to all wells. The microplate was centrifuged at 800 rpm for 60 s and incubated at RT for 60 min. Kinase activity was measured as an increase in luminescence at RT in an Envision plate reader equipped with 560 nm filters and operating in endpoint mode.
Data Analysis: Endpoint chemiluminescence from high and low control wells were used to calculate normalized c-KIT activity at various concentrations of test compounds. The normalized activities were fitted to inhibitor-versus-normalized response fit in GraphPad Prism 7 to determine half-maximal inhibitory concentration (IC50) and hill coefficient values (H).
Where I is the inhibitor concentration and H is the Hill coefficient.

T1 sequence (P10721 544-976 limits assumed): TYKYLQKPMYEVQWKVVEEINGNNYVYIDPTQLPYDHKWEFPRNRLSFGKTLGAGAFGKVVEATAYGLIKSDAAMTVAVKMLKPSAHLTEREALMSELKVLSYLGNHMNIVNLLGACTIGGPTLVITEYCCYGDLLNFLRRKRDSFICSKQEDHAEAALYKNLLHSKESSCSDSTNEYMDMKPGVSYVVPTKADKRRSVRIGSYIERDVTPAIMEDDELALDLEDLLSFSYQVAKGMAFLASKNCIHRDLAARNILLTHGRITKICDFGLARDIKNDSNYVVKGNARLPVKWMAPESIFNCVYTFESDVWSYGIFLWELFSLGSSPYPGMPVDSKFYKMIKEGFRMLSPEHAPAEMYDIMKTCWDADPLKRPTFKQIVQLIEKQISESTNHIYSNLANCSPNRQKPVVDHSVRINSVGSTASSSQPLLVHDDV

SMILES	IC50 [2]	EC50 [1]
Cc1ccc(-c2noc(C3C[C@@H]3C(F)F)n2)cc1NC(=O)c1ccc(NC(=O)OC(C)(C)C)nc1 (some centres unmarked) [Example 398]	> 1000 nM	> 1000 nM
Cc1ncc(-c2noc(N3CC(O)(C(F)(F)F)C3)n2)cc1NC(=O)c1cnn2ccc(N3CC4(C3)CC(O)(C(F)F)C4)cc12 [Example 389]	> 1000 nM	> 1000 nM
Cc1ccc(-c2noc(C3C[C@@H]3F)n2)cc1NC(=O)c1ccc(NC(=O)OC(C)(C)C)nc1 (some centres unmarked) [Example 396]	> 1000 nM	> 1000 nM
Cc1ncc(-c2noc([C@H]3C[C@@H]3C(F)F)n2)cc1NC(=O)c1ccc(N)nc1 [Example 401]	> 1000 nM	100 to 1000 nM
Cc1ncc(-c2nnn(C[C@@H](O)C(F)F)n2)cc1NC(=O)c1cnn2ccc(N3CC4(C3)CC(O)(C(F)F)C4)cc12 [Example 379]	100 to 1000 nM	100 to 1000 nM
Cc1ccc(-c2noc([C@H]3C[C@@H]3C(F)F)n2)cc1NC(=O)c1cnn2ccc(-c3c(C)nc(N)nc3C)cc12 [Example 390]	100 to 1000 nM	100 to 1000 nM

The next lines start with results.

IC50 [2]	SMILES	EC50 [1]
100 to 1000 nM	Cc1ncc(-c2nc([C@H]3C[C@@H]3F)cs2)cc1NC(=O)c1cnn2ccc(N3CC4(C3)CC(O)(C(F)F)C4)cc12 [Example 405]	< 100 nM
100 to 1000 nM	Cc1ncc(-c2nnn(C[C@H](O)C(F)F)n2)cc1NC(=O)c1cnn2ccc(N3CC4(C3)CC(O)(C(F)F)C4)cc12 [Example 378]	100 to 1000 nM
100 to 1000 nM	Cc1ncc(-c2nnn(CC(C)(C)C#N)n2)cc1NC(=O)c1cnn2ccc(N3CC4(C3)CC(O)(C(F)F)C4)cc12 [Example 383]	100 to 1000 nM
100 to 1000 nM	Cc1ncc(-c2noc([C@H]3C[C@@H]3F)n2)cc1NC(=O)c1cnc(-c2ccc3c(c2)c(C)nn3CC(C)(C)O)o1 [Example 22a]	< 100 nM
